Measurements reported in patent US9695155B2, “Herbicidal substituted pyrimidinyloxy benzene compounds” (E. I. DU PONT DE NEMOURS AND COMPANY, priority 2013, dated 2017).

Experiments:
dallisgrass = assay: Test F preemergence; type: in vivo, Paspalum dilatatum; settings: 21 days, scale 0 to 100
In short: (§1)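 Seeds were sown in a loam soil–sand blend and treated preemergence with compounds formulated in a non-phytotoxic solvent mixture containing surfactant. Pots were kept in a greenhouse for 21 days, then visually rated against untreated controls on a 0–100 scale (0 = no effect, 100 = complete control).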

sowthistle = assay: Test F preemergence; type: in vivo, Sonchus oleraceous; settings: 21 days, scale 0 to 100
In short: as §1

kochia = assay: Test E postemergence; type: in vivo, Kochia scoparia
Description: Seeds of plant species selected from corn (Zea mays), soybean (Glycine max), velvetleaf (Abutilon theophrasti), lambsquarters (Chenopodium album), wild poinsettia (Euphorbia heterophylla), palmer pigweed (Amaranthus palmeri), waterhemp (common waterhemp, Amaranthus rudis), surinam grass (Brachiaria decumbens), large (Lg) crabgrass (Digitaria sanguinalis), Brazilian crabgrass (Digitaria horizontalis), fall panicum (Panicum dichotomiflorum), giant foxtail (Setaria faberii), green foxtail (Setaria viridis), goosegrass (Eleusine indica), johnsongrass (Sorghum halepense), ragweed (common ragweed, Ambrosia elatior), barnyardgrass (Echinochloa crus-galli), sandbur (southern sandbur, Cenchrus echinatus), arrowleaf sida (Sida rhombifolia), Italian ryegrass (Lolium multiflorum), dayflower (Virginia (VA) dayflower, Commelina virginica), field bindweed (Convolvulus arvensis), morningglory (Ipomoea coccinea), nightshade (eastern black nightshade, Solanum ptycanthum), kochia (Kochia scoparia), yellow nutsedge (Cyperus esculentus), cocklebur (common cocklebur, Xanthium strumarium), smartweed (ladysthumb smartweed, and hairy beggarticks (Bidens pilosa), were planted into a silt loam soil and treated preemergence with test chemicals formulated in a non-phytotoxic solvent mixture which included a surfactant.
At the same time, plants from these crop and weed species and also horseweed (Canada horseweed, Conyza canadensis), waterhemp_RES1, (ALS & Triazine resistant common waterhemp, Amaranthus rudis), and waterhemp_RES2, (ALS & HPPD resistant common waterhemp, Amaranthus rudis) were planted in pots containing Redi-Earth® planting medium (Scotts Company, 14111 Scottslawn Road, Marysville, Ohio 43041) comprising spaghnum peat moss, vermiculite, wetting agent and starter nutrients were treated with postemergence applications of test chemicals formulated in the same manner. Plants ranged in height from 2 to 18 cm for postemergence treatments (1- to 4-leaf stage). Treated plants and controls were maintained in a greenhouse for 14 to 21 days, after which time all species were compared to controls and visually evaluated. Plant response ratings, summarized in Table E, are based on a scale of 0 to 100 where 0 is no effect and 100 is complete control. A dash (-) response means no test result.

signalgrass = assay: Test F preemergence; type: in vivo, Brachiaria platyphylla; settings: 21 days, scale 0 to 100
Description: Seeds of plant species selected from bermudagrass (Cynodon dactylon), surinam grass (Brachiaria decumbens), large (Lg) crabgrass (Digitaria sanguinalis), crabgrass, naked (naked crabgrass, Digitaria nuda), foxtail, green (green foxtail, Setaria viridis), johnsongrass (Sorghum halepense), kochia (Kochia scoparia), morningglory (pitted morningglory, Ipomoea lacunosa), nutsedge, purple (purple nutsedge, Cyperus rotundus), ragweed (common ragweed, Ambrosia elatior), mustard, black (black mustard, Brassica nigra), guineagrass (Panicum maximum), dallisgrass (Paspalum dilatatum), barnyardgrass (Echinochloa crus-galli), sandbur (southern sandbur, Cenchrus echinatus), sowthistle (common sowthistle, Sonchus oleraceous), Italian ryegrass (Lolium multiflorum), signalgrass (broadleaf signalgrass, Brachiaria platyphylla), dayflower (Virginia (VA) dayflower, Commelina virginica), bluegrass (annual bluegrass, Poa annua), quackgrass (Elytrigia repens), mallow (common mallow, Malva sylvestris), buckwheat, wild (wild buckwheat, Polygonum convolvulus), leafy spurge (Euphorbia esula), chickweed (common chickweed, Stellaria media), wild poinsettia (Euphorbia heterophylla), and pigweed (Amaranthus retroflexus) were planted into a blend of loam soil and sand and treated preemergence with test chemicals formulated in a non-phytotoxic solvent mixture which included a surfactant.
Treated plants and controls were maintained in a greenhouse for 21 days, after which time all species were compared to controls and visually evaluated. Plant response ratings, summarized in Table F, are based on a scale of 0 to 100 where 0 is no effect and 100 is complete control. A dash (-) response means no test result.

Compound: N#Cc1cccc(Oc2ncc(F)cn2)c1-n1cc(C(F)(F)F)cn1 [Compound 79, 3-[(5-fluoro-2-pyrimidinyl)oxy]-2-[4-(trifluoromethyl)-1H-pyrazol-1-yl]benzonitrile]
- Plant response rating, Dallisgrass (dallisgrass; 16 g ai/ha): 65
- Plant response rating, Dallisgrass (dallisgrass; 31 g ai/ha): 98
- Plant response rating, Dallisgrass (dallisgrass; 62 g ai/ha): 100
- Plant response rating, Dallisgrass (dallisgrass; 125 g ai/ha): 100
- Plant response rating, Dallisgrass (dallisgrass; 250 g ai/ha): 100
- Plant response rating, Sowthistle (sowthistle; 16 g ai/ha): 100
- Plant response rating, Sowthistle (sowthistle; 31 g ai/ha): 100
- Plant response rating, Sowthistle (sowthistle; 62 g ai/ha): 100
- Plant response rating, Sowthistle (sowthistle; 125 g ai/ha): 100
- Plant response rating, Sowthistle (sowthistle; 250 g ai/ha): 100
- Plant response rating, Kochia (kochia; Postemergence, 31 g ai/ha, scale 0 to 100): 70
- Plant response rating, Kochia (kochia; Postemergence, 62 g ai/ha, scale 0 to 100): 80
- Plant response rating, Kochia (kochia; Postemergence, 125 g ai/ha, scale 0 to 100): 75
- Plant response rating, Kochia (kochia; postemergence, 16 g ai/ha, scale 0 to 100, 0 no effect, 100 complete control): 50
- Plant response rating, Signalgrass (signalgrass; 16 g ai/ha): 98
- Plant response rating, Signalgrass (signalgrass; 31 g ai/ha): 100
- Plant response rating, Signalgrass (signalgrass; 62 g ai/ha): 100
- Plant response rating, Signalgrass (signalgrass; 125 g ai/ha): 100
- Plant response rating, Signalgrass (signalgrass; 250 g ai/ha): 100
